Measurements as given in PMC7556317 (Chembiochem : a European journal of chemical biology, 2009).
pEC50: −log10 of the molar value.

Legend:
BT474 breast tumor cells = details: xenografts bearing BT474 breast tumor cells; cited from earlier work
Her-2 in SkBr3 cells = assay: Her-2 depletion in SkBr3 cells as pharmacodynamic marker of cellular efficacy; type: cell-based; details: read-out: PD (Her-2 depletion in SkBr3 cells, EC50); SkBr3 cells treated with the inhibitor overnight

pEC50 (Her-2 in SkBr3 cells) | Compound | Effect on tumor in xenografts (BT474 breast tumor cells)
 | O=C1OCC/C=C/CC/C=C/C(=N/OCC(=O)N2CCCCC2)Cc2c(Cl)c(O)cc(O)c21 [Pochoxime A] | tumor regression
≥ 6.30 | CC1C=CCCOC(=O)c2c(O)cc(O)cc2CC(=NOCC(=O)N2CCCCC2)C=CC1 (stereo not drawn) [Compound A1B4C4D1] | 
≥ 6.30 | CC1=CC(=NOCC(=O)N2CCCCC2)Cc2cc(O)cc(O)c2C(=O)OCCC=CCC1 [Compound A1B3C4D1] | 
